ChEMBL document CHEMBL4414679, “Discovery of 4,6-pyrimidinediamine derivatives as novel dual EGFR/FGFR inhibitors aimed EGFR/FGFR1-positive NSCLC” (Eur J Med Chem, 2020)
Active and inactive are the calls of the source. No cut-off for these calls is given here.

Assays:
PC-9 = assay: Antiproliferative activity against human PC9 cells assessed as inhibition of cell growth at 10 uM incubated for 48 hrs by MTT assay relative to control; type: functional; conditions: PC-9, 48 h
NCI-H520 = assay: Antiproliferative activity against human NCI-H520 cells assessed as inhibition of cell growth at 10 uM incubated for 48 hrs by MTT assay relative to control; type: functional; conditions: NCI-H520, 48 h
NCI-H226 [1] = assay: Antiproliferative activity against human NCI-H226 cells assessed as inhibition of cell growth at 10 uM incubated for 48 hrs by MTT assay relative to control; type: functional; conditions: NCI-H226, 48 h
[2] = target: T1, Fibroblast growth factor receptor 1 (Homo sapiens, UniProt P11362); assay: Inhibition of N-terminal GST-tagged human FGFR1 expressed in baculovirus at 10 uM using FAM-labelled peptide as substrate pre-incubated for 10 mins followed by substrate addition by mobility shift assay relative to control
[3] = Half-life in Sprague-Dawley rat at 30 mg/kg, po measured upto 24 hrs by UPLC-MS/MS; type: ADME, organism-based; conditions: in vivo
[4] = Tmax in Sprague-Dawley rat at 30 mg/kg, po measured upto 24 hrs by UPLC-MS/MS; type: ADME, organism-based; conditions: in vivo
[5] = target: T2, Epidermal growth factor receptor (Homo sapiens, UniProt P00533); assay: Inhibition of EGF-induced EGFR phosphorylation in serum-starved human HCC827 cells upto 10 uM incubated for 1 hr by Western blot analysis; type: cell-based
[6] = target: T1, Fibroblast growth factor receptor 1; assay: Inhibition of FGFR in serum-starved human H520 cells assessed as reduction in FGFR-induced AKT phosphorylation upto 10 uM incubated for 1 hr by Western blot analysis
[7] = Antiproliferative activity against gefitinib-resistant human HCC827GR cells incubated for 48 hrs by MTT assay; type: functional
Homo sapiens [8] = species: Homo sapiens; assay: Inhibition of colony formation in gefitinib-insensitive human HCC827GR cells measured after 24 hrs by crystal violet staining based assay; type: functional
NCI-H226 [9] = assay: Induction of apoptosis in human NCI-H226 cells assessed as late apoptotic cells at 5 uM measured after 24 hrs by Annexin-V/propidium iodide staining-based flow cytometric analysis (reference value: 2.8%); type: functional
NCI-H226 [10] = assay: Induction of apoptosis in human NCI-H226 cells assessed as necrotic cells at 5 uM measured after 24 hrs by Annexin-V/propidium iodide staining-based flow cytometric analysis (reference value: 3%); type: functional
NCI-H226 [11] = assay: Induction of apoptosis in human NCI-H226 cells assessed as late apoptotic cells at 10 uM measured after 24 hrs by Annexin-V/propidium iodide staining-based flow cytometric analysis (reference value: 2.8%); type: functional
[12] = Induction of apoptosis in gefitinib-insensitive human HCC827GR cells assessed as viable cells at 1 uM measured after 24 hrs by Annexin-V/propidium iodide staining-based flow cytometric analysis (reference value: 90.8%); type: functional; conditions: read-out: Activity
[13] = Induction of apoptosis in gefitinib-insensitive human HCC827GR cells assessed as early apoptotic cells at 1 uM measured after 24 hrs by Annexin-V/propidium iodide staining-based flow cytometric analysis (reference value: 1.9%); type: functional
[14] = Induction of apoptosis in gefitinib-insensitive human HCC827GR cells assessed as late apoptotic cells at 1 uM measured after 24 hrs by Annexin-V/propidium iodide staining-based flow cytometric analysis (reference value: 1.5%); type: functional
[15] = Induction of apoptosis in gefitinib-insensitive human HCC827GR cells assessed as early apoptotic cells at 5 uM measured after 24 hrs by Annexin-V/propidium iodide staining-based flow cytometric analysis (reference value: 1.9%); type: functional
[16] = Induction of apoptosis in gefitinib-insensitive human HCC827GR cells assessed as viable cells at 5 uM measured after 24 hrs by Annexin-V/propidium iodide staining-based flow cytometric analysis (reference value: 90.8%); type: functional; conditions: read-out: Activity
[17] = Induction of apoptosis in gefitinib-insensitive human HCC827GR cells assessed as late apoptotic cells at 2.5 uM measured after 24 hrs by Annexin-V/propidium iodide staining-based flow cytometric analysis (reference value: 1.5%); type: functional
[18] = Induction of apoptosis in gefitinib-insensitive human HCC827GR cells assessed as early apoptotic cells at 2.5 uM measured after 24 hrs by Annexin-V/propidium iodide staining-based flow cytometric analysis (reference value: 1.9%); type: functional
[19] = Induction of apoptosis in gefitinib-insensitive human HCC827GR cells assessed as viable cells at 2.5 uM measured after 24 hrs by Annexin-V/propidium iodide staining-based flow cytometric analysis (reference value: 90.8%); type: functional; conditions: read-out: Activity
[20] = Induction of apoptosis in gefitinib-insensitive human HCC827GR cells assessed as necrotic cells at 2.5 uM measured after 24 hrs by Annexin-V/propidium iodide staining-based flow cytometric analysis (reference value: 5.8%); type: functional
[21] = target: T2, Epidermal growth factor receptor; assay: Inhibition of EGFR in gefitinib-insensitive human HCC827GR cells assessed as reduction in EGF-induced EGFR phosphorylation upto 10 uM measured after 2 hrs by western blot analysis
[22] = Toxicity in BALB/c nude mouse xenografted with human HCC827GR cells assessed as body weight at 15 mg/kg, ip dosed measured every 2 days upto 24 days; type: organism-based; conditions: in vivo
Homo sapiens [23] = assay: Antitumor activity against human HCC827GR cells xenografted in BALB/c nude mouse assessed as reduction in tumor volume at 15 mg/kg, ip dosed measured every 2 days upto 25 days; type: functional, organism-based
[24] = Induction of apoptosis in gefitinib-insensitive human HCC827GR cells assessed as late apoptotic cells at 10 uM measured after 24 hrs by Annexin-V/propidium iodide staining-based flow cytometric analysis (reference value: 1.5%); type: functional
[25] = AUC (0 to infinity) in Sprague-Dawley rat at 30 mg/kg, po measured upto 24 hrs by UPLC-MS/MS; type: ADME, organism-based; set-up: dose 30 mg/kg, route oral, time infinity; conditions: in vivo
[26] = target: Fibroblast growth factor receptor 4 (Homo sapiens) (UniProt P22455); assay: Inhibition of N-terminal GST tagged human FGFR4 cytoplasmic domain (460 to 802 AA) expressed in baculovirus at 10 uM using FAM-labelled peptide as substrate pre-incubated for 10 mins followed by substrate addition by mobility shift assay relative to control
[27] = target: Platelet-derived growth factor receptor alpha (Homo sapiens) (UniProt P16234); assay: Inhibition of N-terminal GST tagged human PDGFRalpha cytoplasmic domain (550 to 1089 AA) expressed in baculovirus at 10 uM using FAM-labelled peptide as substrate pre-incubated for 10 mins followed by substrate addition by mobility shift assay relative to control
[28] = target: Vascular endothelial growth factor receptor 1 (Homo sapiens) (UniProt P17948); assay: Inhibition of N-terminal GST tagged human FLT1 cytoplasmic domain (781 to 1338 AA) expressed in baculovirus at 10 uM using FAM-labelled peptide as substrate pre-incubated for 10 mins followed by substrate addition by mobility shift assay relative to control
[29] = target: Mitogen-activated protein kinase 9 (Homo sapiens) (UniProt P45984); assay: Inhibition of human recombinant full length His-tagged JNK2 expressed in baculovirus expression system at 10 uM using FAM-labelled peptide as substrate pre-incubated for 10 mins followed by substrate addition by mobility shift assay relative to control
Sequence of Mitogen-activated protein kinase 9 (Homo sapiens) (P45984 whole entry, looked up): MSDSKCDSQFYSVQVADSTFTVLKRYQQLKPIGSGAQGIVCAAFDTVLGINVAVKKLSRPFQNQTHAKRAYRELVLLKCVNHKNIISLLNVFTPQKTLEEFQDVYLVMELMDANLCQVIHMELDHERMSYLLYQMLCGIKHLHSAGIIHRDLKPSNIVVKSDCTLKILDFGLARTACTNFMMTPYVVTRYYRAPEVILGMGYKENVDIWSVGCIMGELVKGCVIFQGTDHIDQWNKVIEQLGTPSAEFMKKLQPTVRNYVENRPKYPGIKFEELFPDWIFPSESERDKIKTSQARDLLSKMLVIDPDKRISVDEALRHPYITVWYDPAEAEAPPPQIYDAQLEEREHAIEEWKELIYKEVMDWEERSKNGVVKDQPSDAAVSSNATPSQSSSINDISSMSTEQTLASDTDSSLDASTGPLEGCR

T2 sequence (P00533 whole entry): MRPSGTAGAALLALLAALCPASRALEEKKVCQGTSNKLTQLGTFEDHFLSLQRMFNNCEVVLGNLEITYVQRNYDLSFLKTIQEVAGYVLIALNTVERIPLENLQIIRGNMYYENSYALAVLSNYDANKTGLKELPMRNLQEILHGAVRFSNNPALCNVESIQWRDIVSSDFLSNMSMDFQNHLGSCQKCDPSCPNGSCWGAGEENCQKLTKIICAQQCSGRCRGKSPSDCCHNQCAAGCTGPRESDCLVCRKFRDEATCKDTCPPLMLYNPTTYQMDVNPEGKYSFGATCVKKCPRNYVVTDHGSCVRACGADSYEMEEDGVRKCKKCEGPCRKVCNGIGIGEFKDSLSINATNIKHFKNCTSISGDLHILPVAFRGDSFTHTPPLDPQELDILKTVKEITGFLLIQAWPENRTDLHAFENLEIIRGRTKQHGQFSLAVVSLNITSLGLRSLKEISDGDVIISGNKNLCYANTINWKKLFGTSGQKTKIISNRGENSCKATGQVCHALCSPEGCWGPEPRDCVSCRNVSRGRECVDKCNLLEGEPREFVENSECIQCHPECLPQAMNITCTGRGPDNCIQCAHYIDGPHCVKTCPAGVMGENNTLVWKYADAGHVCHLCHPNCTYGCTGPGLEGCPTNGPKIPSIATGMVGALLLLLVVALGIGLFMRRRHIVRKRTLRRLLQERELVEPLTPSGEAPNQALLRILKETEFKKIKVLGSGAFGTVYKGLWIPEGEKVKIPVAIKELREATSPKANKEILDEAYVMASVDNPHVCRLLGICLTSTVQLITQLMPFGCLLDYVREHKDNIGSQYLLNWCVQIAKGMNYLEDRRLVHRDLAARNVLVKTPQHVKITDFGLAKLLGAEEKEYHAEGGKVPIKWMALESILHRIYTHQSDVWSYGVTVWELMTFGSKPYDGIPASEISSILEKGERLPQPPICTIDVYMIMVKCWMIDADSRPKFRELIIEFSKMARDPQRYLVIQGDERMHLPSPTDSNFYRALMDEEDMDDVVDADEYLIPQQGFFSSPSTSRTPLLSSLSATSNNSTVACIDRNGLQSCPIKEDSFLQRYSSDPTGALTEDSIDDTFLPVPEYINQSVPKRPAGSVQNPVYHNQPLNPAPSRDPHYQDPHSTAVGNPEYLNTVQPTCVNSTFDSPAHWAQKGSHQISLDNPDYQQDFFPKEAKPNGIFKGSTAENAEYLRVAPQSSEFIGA
T1 sequence (P11362 22-822 limits assumed): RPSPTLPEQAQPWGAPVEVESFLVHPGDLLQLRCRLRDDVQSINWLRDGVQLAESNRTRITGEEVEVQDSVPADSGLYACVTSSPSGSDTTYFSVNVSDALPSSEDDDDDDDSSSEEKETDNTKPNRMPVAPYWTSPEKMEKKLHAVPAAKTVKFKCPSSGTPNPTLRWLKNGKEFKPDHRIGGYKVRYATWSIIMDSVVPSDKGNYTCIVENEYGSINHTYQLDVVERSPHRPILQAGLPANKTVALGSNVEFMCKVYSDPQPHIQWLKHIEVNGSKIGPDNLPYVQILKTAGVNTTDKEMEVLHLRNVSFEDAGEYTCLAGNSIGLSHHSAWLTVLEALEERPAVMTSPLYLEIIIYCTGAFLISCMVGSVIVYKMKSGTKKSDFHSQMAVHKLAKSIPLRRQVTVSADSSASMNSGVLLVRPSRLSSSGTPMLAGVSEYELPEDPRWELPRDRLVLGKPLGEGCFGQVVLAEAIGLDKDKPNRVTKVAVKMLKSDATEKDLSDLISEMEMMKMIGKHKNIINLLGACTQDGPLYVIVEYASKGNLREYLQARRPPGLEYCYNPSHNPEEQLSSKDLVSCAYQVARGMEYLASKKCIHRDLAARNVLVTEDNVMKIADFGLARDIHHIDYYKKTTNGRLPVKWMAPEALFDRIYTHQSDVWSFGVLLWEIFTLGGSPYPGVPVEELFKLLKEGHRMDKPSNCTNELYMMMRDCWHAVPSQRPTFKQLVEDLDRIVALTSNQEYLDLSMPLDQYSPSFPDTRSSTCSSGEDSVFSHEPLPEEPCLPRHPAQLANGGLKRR
Sequence of Fibroblast growth factor receptor 4 (Homo sapiens) (P22455 22-802 limits assumed): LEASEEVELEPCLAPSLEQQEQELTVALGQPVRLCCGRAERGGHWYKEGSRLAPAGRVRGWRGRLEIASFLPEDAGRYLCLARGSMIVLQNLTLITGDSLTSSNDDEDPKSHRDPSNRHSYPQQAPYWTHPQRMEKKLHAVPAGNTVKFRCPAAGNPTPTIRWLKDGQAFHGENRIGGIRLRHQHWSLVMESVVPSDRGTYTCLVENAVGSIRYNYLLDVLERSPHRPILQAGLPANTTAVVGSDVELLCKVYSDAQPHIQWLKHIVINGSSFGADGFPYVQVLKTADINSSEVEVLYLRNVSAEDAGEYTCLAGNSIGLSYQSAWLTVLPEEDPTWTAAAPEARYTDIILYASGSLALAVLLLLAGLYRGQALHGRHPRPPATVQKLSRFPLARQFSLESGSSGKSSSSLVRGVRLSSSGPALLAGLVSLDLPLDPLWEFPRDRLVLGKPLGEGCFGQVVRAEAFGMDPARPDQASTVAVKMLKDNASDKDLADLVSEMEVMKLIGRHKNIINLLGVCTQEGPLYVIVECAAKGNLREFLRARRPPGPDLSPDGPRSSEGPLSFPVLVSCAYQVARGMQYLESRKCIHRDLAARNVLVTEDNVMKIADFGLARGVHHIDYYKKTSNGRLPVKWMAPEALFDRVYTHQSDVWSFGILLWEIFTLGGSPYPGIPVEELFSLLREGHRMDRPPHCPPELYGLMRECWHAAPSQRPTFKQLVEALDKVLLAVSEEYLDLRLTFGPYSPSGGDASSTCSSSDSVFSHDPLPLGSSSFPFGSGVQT
Sequence of Vascular endothelial growth factor receptor 1 (Homo sapiens) (P17948 whole entry, the tested form may be a part): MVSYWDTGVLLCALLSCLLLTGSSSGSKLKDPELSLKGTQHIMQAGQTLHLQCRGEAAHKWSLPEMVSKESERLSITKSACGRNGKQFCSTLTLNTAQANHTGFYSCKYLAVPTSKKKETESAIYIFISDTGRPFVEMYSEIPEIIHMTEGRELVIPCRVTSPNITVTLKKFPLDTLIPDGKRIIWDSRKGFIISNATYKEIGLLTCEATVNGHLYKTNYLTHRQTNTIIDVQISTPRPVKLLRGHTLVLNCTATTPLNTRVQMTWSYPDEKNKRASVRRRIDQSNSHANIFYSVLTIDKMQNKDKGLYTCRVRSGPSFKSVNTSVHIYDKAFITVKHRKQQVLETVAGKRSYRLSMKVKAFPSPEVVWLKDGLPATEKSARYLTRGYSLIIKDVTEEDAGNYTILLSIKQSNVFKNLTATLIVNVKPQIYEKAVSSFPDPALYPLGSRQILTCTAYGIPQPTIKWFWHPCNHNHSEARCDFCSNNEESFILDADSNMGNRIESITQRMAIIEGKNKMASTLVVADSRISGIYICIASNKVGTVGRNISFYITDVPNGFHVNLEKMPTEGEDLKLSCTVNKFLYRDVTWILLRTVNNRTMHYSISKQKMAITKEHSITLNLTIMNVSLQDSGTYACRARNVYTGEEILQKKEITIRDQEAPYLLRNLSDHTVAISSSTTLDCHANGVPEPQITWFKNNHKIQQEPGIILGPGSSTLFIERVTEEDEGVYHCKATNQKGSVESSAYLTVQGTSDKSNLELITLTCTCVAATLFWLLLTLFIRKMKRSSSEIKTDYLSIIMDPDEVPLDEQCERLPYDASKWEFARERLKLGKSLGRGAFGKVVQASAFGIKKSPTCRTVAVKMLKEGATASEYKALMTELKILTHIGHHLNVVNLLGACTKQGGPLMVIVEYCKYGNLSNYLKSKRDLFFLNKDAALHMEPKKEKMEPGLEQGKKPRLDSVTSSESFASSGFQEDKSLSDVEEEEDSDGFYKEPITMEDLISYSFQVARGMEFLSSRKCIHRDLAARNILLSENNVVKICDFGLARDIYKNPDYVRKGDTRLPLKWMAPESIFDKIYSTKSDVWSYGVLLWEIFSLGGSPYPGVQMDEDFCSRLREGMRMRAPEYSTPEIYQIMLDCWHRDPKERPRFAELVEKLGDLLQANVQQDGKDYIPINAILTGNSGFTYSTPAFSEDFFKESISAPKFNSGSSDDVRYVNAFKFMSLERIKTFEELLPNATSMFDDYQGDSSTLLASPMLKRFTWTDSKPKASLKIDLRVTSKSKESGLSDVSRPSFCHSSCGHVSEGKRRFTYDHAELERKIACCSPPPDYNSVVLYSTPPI

COc1ccc(OC)c(Nc2cc(NC(=O)Nc3c(Cl)cccc3Cl)ncn2)c1
inhibition at 10 µM (PC-9): 95%
inhibition at 10 µM (NCI-H520): 74%
inhibition at 10 µM (NCI-H226 [1]): 81.7%
inhibition [2]: 85.2%
half-life [3]: 7.07 h
Tmax [4]: 1.5 h
inhibition [5]: Active
inhibition [6]: Active
IC50 [7]: 0.93 µM
inhibition (Homo sapiens [8]): Dose-dependent effect
Activity (NCI-H226 [9]): 8.9%
Activity (NCI-H226 [10]): 5.2%
Activity (NCI-H226 [11]): 11.9%
viability at 1 µM [12]: 79.5%
Activity [13]: 0.9%
Activity [14]: 16%
Activity [15]: 1.7%
viability at 5 µM [16]: 68.9%
Activity [17]: 13.5%
Activity [18]: 2.5%
viability at 2.5 µM [19]: 79.5%
Activity [20]: 4.5%
inhibition [21]: Active
Activity [22]: Non-Toxic
Activity (Homo sapiens [23]): Active
Activity [24]: 30.1%
AUC(0-inf) [25]: 13000 ng·h/mL
inhibition [26]: 12.3%
inhibition [27]: 48.1%
inhibition [28]: 27.6%
inhibition [29]: 0.85%
